US20260174766A1, “COMBINATION OF MENIN INHIBITOR(S) AND IMMUNOPROTEASOME INHIBITOR(S) FOR TREATMENT OF LEUKEMIA” (Medizinische Hochschule Hannover, priority 2022, published 2026)

Legend:
[1] = test system: MLLr cell lines; experiment: Cell growth (cell counting after trypan blue exclusion) of MLLr cell lines; format: cell-based, human; details: 50 nM or 100 nM PR-957, 96 hours, vs DMSO; FIG. 1G left
Procedure: (§1) MOLM-13, MONO-MAC-6, THP-1, KOPN-8, ML-2, MV-4;11, OCI-AML3, U-937, KASUMI-1, K-562, HL-60 and LAMA-84 cells were purchased from DSMZ (Braunschweig, Germany). Cas9-Blast cell lines are subclones of the respective cell lines and stably transduced with lentiCas9-Blast (Addgene plasmid #52962). Cells were cultured in RPMI 1640 medium (Thermo Fisher Scientific, Waltham, MA, USA) supplemented with 10-20% FBS (Thermo Fisher Scientific) in a humid atmosphere of 5% CO2 at 37° C. MV4;11 cells harboring Menin-inhibitor resistance mediating mutations of Menin were generated by CRISPR-Cas9 technology.
(§2) Cellular proliferation was assessed by cell counting after trypan blue exclusion. Apoptosis of cells was measured by flow cytometry using Annexin V/SYTOX® Blue staining following the manufacturer's instruction.

[2] = test system: non-MLLr cell lines; experiment: Cell growth (cell counting after trypan blue exclusion) of non-MLLr cell lines; format: cell-based, human; details: 50 nM or 100 nM PR-957, 96 hours, vs DMSO; FIG. 1G right
Procedure: as §1, §2

[3] = test system: AML1-ETO; experiment: Methylcellulose colony-forming assay, AML1-ETO transduced murine cells; format: cell-based, mouse; details: 100 nM or 200 nM; FIG. 2A right panel
Procedure: Primary mouse bone marrow (BM) cells (transduced with MLL-AF9/KRAS, MLL-AF6, or AML1-ETO/KRAS) were seeded in MethoCult GF M3434 (StemCell Technologies) at a concentration of 1×10^3 cells/replicate. Colonies propagated in culture were scored at day 8. For re-plating of primary mouse BM cells, colonies were harvested from the methylcellulose medium, washed with PBS/1% FBS and seeded again at a concentration of 1×10^3 cells/replicate. MOLM-13 or ML-2 cells infected with either control or PSMB8/LMP7-specific shRNAs were plated at a concentration of 1×10^3 cells in MethoCult H4230 (StemCell Technologies) supplemented with 20% FBS and colony numbers were counted on day 10-14.

[4] = test system: MOLM-13 and ML-2 cells; experiment: Global transcriptome analysis by RNA-sequencing; format: cell-based, human; details: 100 nM PR-957, 72 hours, FIG. 3A
Text: Cells were harvested and resuspended in TRIzol™, and RNA was extracted using the TRIzol-Chloroform method (Heidel et al., 2013). RNA-seq libraries were generated using SMART-Seq v4 Ultra Low Input RNA Kit (Takara Bio USA Inc., Mountain View, CA, USA) followed by Nextera XT (Illumina, San Diego, CA, USA).
For analysis, 50 bp single-end reads (Illumina) were aligned to reference genome mm10 and gtf.-transcriptome annotation release M7 (GENCODE) using STAR two-pass mode (Dobin et al., 2013).
GENCODE M7 gtf.-file was used for quantification, performed by STAR, followed by normalization, transformation and differential gene expression analysis in DEseq2 (Love et al., 2014). GSEA was carried out on a public server “Gene Pattern” of Broad Institute (Reich et al., 2006). For analysis of the genetic CRISPRCas9 screen, next generation sequencing was performed on an Illumina NextSeq platform (75 bp, single reads) aiming for a minimum of 30Mio reads per sample.
Therefore, it was sought to determine to which extent the inhibition of PSMB8/LMP7 also contributes to the transcriptional regulation of human MLL-target genes. […] This cell line was selected for its sensitivity to PR-957 (FIG. 3D) and ability to be transduced among the MLLr cell lines evaluated above. […]

COc1ccc(C[C@H](NC(=O)[C@H](C)NC(=O)CN2CCOCC2)C(=O)N[C@@H](Cc2ccccc2)C(=O)[C@]2(C)CO2)cc1 [PR-957, (2S)-3-(4-methoxyphenyl)-N-[(2S)-1-[(2S)-2-methyloxiran-2-yl]-1-oxo-3-phenylpropan-2-yl]-2-[[(2S)-2-[(2-morpholin-4-ylacetyl)amino]propanoyl]amino]propanamide]
cell growth in MLLr cell lines [1]: dose-dependent and specific reduction of cell growth | cell growth in non-MLLr cell lines [2]: largely unaffected | reduction of clonogenic potential, non-MLL fusion oncogene AML1-ETO [3]: not detectable | genes regulated in both cell lines upon treatment (overlap) [4]: 457 genes
